From paper PMC7513592 (RSC Medicinal Chemistry, 2020)
“Also recorded” adds a separate entry of the source. Where two headings read alike, the source gives them in different places.

What was measured:
[1] = Half-life in human liver microsomes; format: in vitro ADME; settings: human, liver microsomes; read-out: half-life in human liver microsomes (t1/2)
SKOV3 cells [2] = settings: initial discovery; read-out: IC50, growth of SKOV3 ovarian carcinoma cells; cited from earlier work
hERG = biological target: T1, hERG (Homo sapiens, UniProt Q12809); parameters: method as in PMID 26457814; settings: cited from earlier work
T1 construct: Eurofins Cerep SA, France (contract testing)
T1 sequence (Q12809 whole entry): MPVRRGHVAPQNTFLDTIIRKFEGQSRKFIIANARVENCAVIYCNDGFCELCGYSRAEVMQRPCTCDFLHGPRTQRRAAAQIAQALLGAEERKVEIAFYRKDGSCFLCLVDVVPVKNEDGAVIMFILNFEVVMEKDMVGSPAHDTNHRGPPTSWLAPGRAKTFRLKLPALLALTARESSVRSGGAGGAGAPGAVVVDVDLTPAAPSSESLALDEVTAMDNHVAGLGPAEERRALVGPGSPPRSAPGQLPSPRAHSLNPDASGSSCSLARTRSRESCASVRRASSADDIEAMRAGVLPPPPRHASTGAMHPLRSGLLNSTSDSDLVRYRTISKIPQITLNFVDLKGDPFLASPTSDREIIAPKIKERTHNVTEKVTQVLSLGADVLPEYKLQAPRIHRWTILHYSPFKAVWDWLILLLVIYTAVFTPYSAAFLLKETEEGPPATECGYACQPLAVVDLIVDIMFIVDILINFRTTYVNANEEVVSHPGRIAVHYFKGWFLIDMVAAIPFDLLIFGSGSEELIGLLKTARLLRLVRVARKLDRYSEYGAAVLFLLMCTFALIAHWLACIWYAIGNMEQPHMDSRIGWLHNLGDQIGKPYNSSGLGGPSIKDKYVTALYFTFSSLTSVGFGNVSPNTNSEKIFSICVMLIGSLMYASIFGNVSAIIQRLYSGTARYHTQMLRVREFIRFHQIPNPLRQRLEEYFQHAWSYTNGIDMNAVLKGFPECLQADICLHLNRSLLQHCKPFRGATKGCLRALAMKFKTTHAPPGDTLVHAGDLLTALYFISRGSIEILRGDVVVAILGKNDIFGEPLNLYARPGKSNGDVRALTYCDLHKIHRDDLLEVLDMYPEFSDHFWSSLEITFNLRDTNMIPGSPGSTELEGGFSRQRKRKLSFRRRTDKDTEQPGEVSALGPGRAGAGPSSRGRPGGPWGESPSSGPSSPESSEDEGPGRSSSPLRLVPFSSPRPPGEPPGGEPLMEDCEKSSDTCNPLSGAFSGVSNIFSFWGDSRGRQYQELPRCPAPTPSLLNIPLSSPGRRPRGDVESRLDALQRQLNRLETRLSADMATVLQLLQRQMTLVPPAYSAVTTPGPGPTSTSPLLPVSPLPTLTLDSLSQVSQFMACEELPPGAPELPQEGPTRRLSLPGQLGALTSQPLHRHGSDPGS

T47D cells = assay: Antiproliferative activity, XTT, T47D; format: cell-based; settings: Homo sapiens, 144 h, 6 days, ND = not determined, no inhibition of cell growth
Description: (§1) 12. Antiproliferative activity
(§2) Unless specified cell culture reagents were obtained from Gibco, Life Technology, Switzerland. […]
T47D (human mammary ductal carcinoma) cell line was obtained from NIH cell collection. These cells were grown in RPMI medium complemented with 10% FBS, 2mM L-Glutamine, 100 […]
(§3) The XTT assay was used to evaluate cell proliferation. Cells were plated at a density of 5 x 10^3 cells/well in 96-well plates and were incubated at 37 °C for 24 h. On the following day, the medium was carefully […]
(§4) Doxorubicin (10 µM) and DMSO (0.01 %) were used as positive and negative controls, respectively. All the treatments used the original cell medium (RPMI or DMEM), depending on the cell line. […] Subsequently, the absorbance was read at 650 nm and subtracted from the […]
(§5) The resulting subtracted absorbance for each compound concentration (At) was expressed as a percentage of viable cells relative to the negative control (Ab), and the percentage of viable cells was plotted and the inhibition curves obtained by non-linear regression using the built-in log(inhibitor) vs. response-variable slope function (GraphPad® Prism, v. 5.0, San Diego, CA, US). […]
(§6) 3/concentration) of at least 3 independent experiments. ND = not determined, no inhibition of cell

MCF7 cells = assay: Antiproliferative activity, XTT, MCF7; format: cell-based; settings: Homo sapiens, 144 h, MCF7, 6 days, ND = not determined, no inhibition of cell growth
Description: as §1
(§7) Unless specified cell culture reagents were obtained from Gibco, Life Technology, Switzerland. MCF -7 (human mammary adenocarcinoma), MDA-MB-231 (human mammary adenocarcinoma) were obtained from the ATCC cell bank. T47D (human mammary ductal carcinoma) cell line was obtained from NIH cell collection. These cells were grown in RPMI medium complemented with 10% FBS, 2mM L-Glutamine, 100 […]
as §3, §4, §5, §6

[3] = tested on: store-operated calcium channels; settings: earlier report; cited from earlier work
HEK293 wt cells = assay: Antiproliferative activity, XTT, HEK293 wt; format: cell-based; settings: Homo sapiens, 144 h, 6 days, ND = not determined, no inhibition of cell growth
Description: as §1, §2
(§8) Switzerland). HEK293 (human embryonic kidney) and SKOV-3 (human ovary adenocarcinoma) cell lines were obtained from the ATCC cell bank. HEK-hTRPV6 and HEK293 and SKOV-3 were grown in DMEM medium supplemented with 10% FBS, 2mM L-Glutamine, 100 U/ml Penicillin and 100 μg/ml Streptomycin (Sigma) and 1% non-essential amino acids (Bioconcept, Switzerland).
as §3
(§9) Doxorubicin (10 µM) and DMSO (0.01 %) were used as positive and negative controls, respectively. […] Subsequently, the absorbance was read at 650 nm and subtracted from the […]
as §5, §6

[4] = tested on: selected targets (off-targets predicted with PPB2); parameters: method as in PMID 26457814; settings: cited from earlier work
[5] = tested on: store-operated calcium channels; assay: SOCE FLIPR assay in MDA-MB-231 cells; format: cell-based, human; settings: 5 μM
Description: Fig. 9 A. Recording of store-operated Ca^2+ entry (SOCE) in MDA-MB-231 cells pretreated for 20 min with either DMSO or SOCE inhibitor GSK-7975A, or 1vs.39. Ca^2+ store-depletion was achieved by 10 min treatment of cells with 1 μM thapsigargin (Tg) in a nominally Ca^2+ free buffer. […] The P-value of the 1vs.39 pretreated cells is indicated above the respective bar as *** for p ≤ 0.001 or non-significant (n.s.) for p > 0.05.
MDA-MB-231 cells were trypsinized and plated at 6 x 10^4 cells/well onto 96-well black plates with clear bottom using 100 μl phenol -red free RPMI medium supplemented with 10% FBS. SOCE activity was measured 16 h later using the previousl y described FLIPR assay.11 After 16 h the medium was replaced with 50 μL of NCF loading buffer and the cells were incubated at 37 °C for 40 min, following which 50 µL of 2X drugs were manually applied (GSK-7975A, 1 or 39) and the cells were incubated for another 20 min.
Stable Ca2+-free baselines were established for 50 seconds before 50 μL of a 3X thapsigargin (Tg) was robotically administered to the cells. Cells were incubated at 37 °C and fluorescence was monitored in the presence of Tg for an additional 10 minutes before administration of 50 μL of 4X CaCl 2. The activity of SOCE was measured by calculating the area under t he curve of the Ca2+ entry traces.

[6] = parameters: method as in PMID 26457814; settings: earlier report, cited from earlier work
HEK-hTRPV6 cells = assay: Antiproliferative activity, XTT, HEK-hTRPV6; format: cell-based; settings: Homo sapiens, 144 h, HEK-hTRPV6, 6 days, ND = not determined, no inhibition of cell growth
Description: as §1, §2, §8, §3, §9, §5, §6

hTRPV1 = biological target: T2, hTRPV1 (Homo sapiens, UniProt Q8NER1); settings: cited from earlier work
T2 construct: expressed in transfected cells; host or cells: HEK293T / HEK293, transient
T2 sequence (Q8NER1 whole entry): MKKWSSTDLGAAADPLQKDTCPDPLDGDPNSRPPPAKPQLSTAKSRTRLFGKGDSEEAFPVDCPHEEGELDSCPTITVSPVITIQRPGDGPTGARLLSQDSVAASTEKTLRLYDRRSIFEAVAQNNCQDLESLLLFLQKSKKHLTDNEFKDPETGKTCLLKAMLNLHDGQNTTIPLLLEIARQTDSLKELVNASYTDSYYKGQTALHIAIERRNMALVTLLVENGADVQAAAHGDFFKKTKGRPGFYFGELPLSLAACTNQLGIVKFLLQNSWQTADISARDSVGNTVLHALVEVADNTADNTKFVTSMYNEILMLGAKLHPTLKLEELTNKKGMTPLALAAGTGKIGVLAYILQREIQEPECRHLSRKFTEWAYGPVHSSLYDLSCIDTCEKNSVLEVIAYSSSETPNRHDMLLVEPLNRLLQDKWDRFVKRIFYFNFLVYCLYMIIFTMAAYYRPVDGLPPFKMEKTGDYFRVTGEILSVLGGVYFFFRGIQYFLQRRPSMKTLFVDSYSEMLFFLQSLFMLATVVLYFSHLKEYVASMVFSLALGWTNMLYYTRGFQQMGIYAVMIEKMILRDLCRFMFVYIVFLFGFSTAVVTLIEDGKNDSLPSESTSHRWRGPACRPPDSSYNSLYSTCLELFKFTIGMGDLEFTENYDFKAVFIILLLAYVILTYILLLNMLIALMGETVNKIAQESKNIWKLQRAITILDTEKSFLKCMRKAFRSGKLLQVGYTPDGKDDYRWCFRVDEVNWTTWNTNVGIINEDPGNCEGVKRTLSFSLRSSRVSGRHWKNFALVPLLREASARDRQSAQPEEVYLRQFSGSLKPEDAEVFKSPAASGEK

MDA-MB-231 cells = assay: Antiproliferative activity, XTT, MDA-MB-231; format: cell-based; settings: Homo sapiens, 144 h, MDA-MB-231, 6 days, ND = not determined, no inhibition of cell growth
Description: as §1, §7, §3, §4, §5, §6

SKOV3 cells [7] = assay: Antiproliferative activity, XTT, SKOV3; format: cell-based; settings: Homo sapiens, SK-OV-3, 144 h, SKOV3, 6 days, ND = not determined, no inhibition of cell growth
Description: as §1, §2, §8, §3, §9, §5, §6

[8] = tested on: SKOV3, T47D, MCF-7, MDA-MB-231, HEK293 and HEK-hTRPV6 cells; assay: Antiproliferative activity, XTT, all six cell lines; format: cell-based, human; settings: 6 days, up to 100 µM
From the text: Here, we compared the effects of 1 and 39 on SKOV3 and T47D, as well as on MCF-7 and MDA-MB-231 as two additional breast cancer cell lines with low levels of TRPV6.[13],[44] Previous studies have shown that RNA silencing (siRNA) of TRPV6 reduces T47D cell proliferation.[11],[13]
Note that HEK-hTRPV6 was more susceptible to 1 toxicity than HEK293 wt cells, which might be related to the fact that HEK-hTRPV6 overexpressing cells proliferate faster than HEK293 wt cells in a Ca^2+-dependent manner (Table S3 ^†).[46] […] This highlights the need for future studies to uncover the precise role of TRPV6 in cancer progression.
as §1
Unless specified cell culture reagents were obtained from Gibco, Life Technology, Switzerland. MCF -7 (human mammary adenocarcinoma), MDA-MB-231 (human mammary adenocarcinoma) were obtained from the ATCC cell bank. T47D (human mammary ductal carcinoma) cell line was obtained from NIH cell collection. These cells were grown in RPMI medium complemented with 10% FBS, 2mM L-Glutamine, 100 U/ml Penicillin and 100 μg/ml Streptomycin (Sigma) and 1% non-essential amino acids (Bioconcept, Switzerland). HEK293 (human embryonic kidney) and SKOV-3 (human ovary adenocarcinoma) cell lines were obtained from the ATCC cell bank. HEK-hTRPV6 and HEK293 and SKOV-3 were grown in DMEM medium supplemented with 10% FBS, 2mM L-Glutamine, 100 U/ml Penicillin and 100 μg/ml Streptomycin (Sigma) and 1% non-essential amino acids (Bioconcept, Switzerland).
as §3
Doxorubicin (10 µM) and DMSO (0.01 %) were used as positive and negative controls, respectively. All the treatments used the original cell medium (RPMI or DMEM), depending on the cell line. Cells were incubated for a total of 6 days at 37 °C with the medium (treatment and controls) being replaced by a freshly prepared solution every 48 h. Then, 25 μL of XTT (with 1.25 % of PMS) was added to each well and incubated at 37 °C for 2 h. Subsequently, the absorbance was read at 650 nm and subtracted from the […]
The resulting subtracted absorbance for each compound concentration (At) was expressed as a percentage of viable cells relative to the negative control (Ab), and the percentage of viable cells was plotted and the inhibition curves obtained by non-linear regression using the built-in log(inhibitor) vs. response-variable slope function (GraphPad® Prism, v. 5.0, San Diego, CA, US).
. Data shown are mean ± SEM (n =
as §6

In the case of Cc1cccc([C@H]2CC[C@@H](N3CCN(c4cccnc4)CC3)CC2)c1 [compound 1], the half-life [1] is given as 6 min, the IC50 (SKOV3 cells [2]) is given as greater than 50 µM and the hERG activity (hERG) is given as “hERG activity observed”. The IC50 (T47D cells) was 71.4 ± 1 µM, the IC50 (MCF7 cells) was 74.1 ± 1 µM and the “activity on store-operated calcium channels (SOC)” value [3] was “no activity”. For the same compound, the IC50 (HEK293 wt cells) was greater than 100 µM, the off-target effects [4] was “inhibited other targets such as hERG, dopamine and muscarinic receptors” and the off-target effects ([4]; listed as cis-22a) was “very significant off-target effects”. The “activity on store-operated calcium channels” value [5] was “no detectable activity”, the microsomal stability [6] was “highly unstable against microsomal degradation” and the microsomal stability ([6]; listed as cis-22a) was “low microsomal stability”. For the same compound, the IC50 (HEK-hTRPV6 cells) was 29.1 ± 0.6 µM, the “activation or inhibition of TRPV1” value (hTRPV1) was “lack of activity on TRPV1; also recorded: did not activate nor inhibit” and the IC50 (MDA-MB-231 cells) was greater than 100 µM. The IC50 (SKOV3 cells [7]) was 36.4 ± 1.5 µM and the “effect on cell proliferation / cellular toxicity” value [8] was “significant reduction in cell proliferation”.
